Measured values: paper PMC6250127 (Journal of medicinal chemistry, 2015)
“Also recorded” adds a separate entry of the source. Like-named read-outs stand apart in the source and are kept apart here.

What was measured:
[1] = PC12 cell viability, direct effect of compound; details: rat
human D3 receptor = human D3 receptor (Homo sapiens, UniProt P35462); assay: Stimulation of [35S]GTPγS binding, human D3 receptor in CHO cells; assay type: biochemical; details: for Emax: read-out: hCHO−D3 Emax, percent of Emax observed with 100 μM DA; for D2/D3: ratio of GTPγS EC50 values
Chain of human D3 receptor (P35462 whole entry): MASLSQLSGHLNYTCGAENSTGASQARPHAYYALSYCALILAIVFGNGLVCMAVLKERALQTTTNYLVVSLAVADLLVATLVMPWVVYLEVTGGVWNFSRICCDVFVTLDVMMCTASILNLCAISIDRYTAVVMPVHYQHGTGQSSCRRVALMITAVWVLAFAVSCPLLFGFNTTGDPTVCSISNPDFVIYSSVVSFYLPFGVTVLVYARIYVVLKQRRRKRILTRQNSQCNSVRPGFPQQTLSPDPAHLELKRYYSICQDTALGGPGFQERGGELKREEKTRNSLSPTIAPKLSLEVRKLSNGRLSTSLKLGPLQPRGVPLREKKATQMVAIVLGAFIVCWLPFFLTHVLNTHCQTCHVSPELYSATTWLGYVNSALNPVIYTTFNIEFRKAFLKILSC

PC12 cells [2] = assay: PC12 cell viability, direct effect of compound; details: PC12 cells, 0.01− 30 μM
reserpinized rats = assay: Reversal of reserpine-induced hypolocomotion in rats; assay type: in vivo, rat; details: for reversal of reserpine-induced hypolocomotion (locomotor activity): 10 μMol/kg ip, reserpine 5 mg/kg sc, 18 h pretreatment, rats; for duration of locomotor activation: 10 μMol/kg, reserpinized rats, locomotion monitored for 6 h
PC12 cells [3] = assay: Neuroprotection against 6-OHDA-induced toxicity in PC12 cells; details: 24 h pretreatment, then 75 μM 6-OHDA for 24 h
human D2 receptor = human D2 receptor (Homo sapiens, UniProt P14416); assay: Stimulation of [35S]GTPγS binding, human D2 receptor in CHO cells; assay type: biochemical; details: for Emax: read-out: hCHO−D2 Emax, percent of Emax observed with 1 mM DA; for hCHO−D2 Emax: percent of Emax observed with 1 mM DA
Chain of human D2 receptor (P14416 whole entry): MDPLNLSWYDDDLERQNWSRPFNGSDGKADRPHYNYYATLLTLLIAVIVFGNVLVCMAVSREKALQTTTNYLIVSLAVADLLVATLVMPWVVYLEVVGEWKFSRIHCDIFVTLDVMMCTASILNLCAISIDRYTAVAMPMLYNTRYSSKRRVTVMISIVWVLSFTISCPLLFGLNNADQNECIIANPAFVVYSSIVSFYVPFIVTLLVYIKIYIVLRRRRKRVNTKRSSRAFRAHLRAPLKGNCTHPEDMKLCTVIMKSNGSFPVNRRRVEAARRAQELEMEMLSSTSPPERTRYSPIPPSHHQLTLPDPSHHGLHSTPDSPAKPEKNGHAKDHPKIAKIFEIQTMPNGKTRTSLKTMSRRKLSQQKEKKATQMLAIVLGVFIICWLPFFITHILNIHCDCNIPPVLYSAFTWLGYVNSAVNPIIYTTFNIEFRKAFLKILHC

rat D3 receptor [4] = target: T1, rat D3 receptor (Rattus norvegicus, UniProt P19020); assay: [3H]spiroperidol competition binding, rat D3 receptor in HEK-293 cells; details: for D2L/D3: ratio of Ki values, selectivity for D3
T1 sequence (P19020 whole entry): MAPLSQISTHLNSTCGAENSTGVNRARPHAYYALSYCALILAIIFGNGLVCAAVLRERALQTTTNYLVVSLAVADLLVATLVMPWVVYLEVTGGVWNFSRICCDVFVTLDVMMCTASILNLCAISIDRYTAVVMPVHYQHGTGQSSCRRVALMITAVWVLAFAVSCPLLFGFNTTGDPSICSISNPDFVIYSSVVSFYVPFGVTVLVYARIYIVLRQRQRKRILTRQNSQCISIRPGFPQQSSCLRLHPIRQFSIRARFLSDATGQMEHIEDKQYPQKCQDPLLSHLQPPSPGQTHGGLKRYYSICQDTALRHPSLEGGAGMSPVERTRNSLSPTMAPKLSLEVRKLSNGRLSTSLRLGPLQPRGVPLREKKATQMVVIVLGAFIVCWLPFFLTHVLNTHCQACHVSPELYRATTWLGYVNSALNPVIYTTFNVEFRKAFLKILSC

rat D2L receptor = rat D2L receptor (Rattus norvegicus, UniProt P61169); assay: [3H]spiroperidol competition binding, rat D2L receptor in HEK-293 cells
Chain of rat D2L receptor (P61169 whole entry): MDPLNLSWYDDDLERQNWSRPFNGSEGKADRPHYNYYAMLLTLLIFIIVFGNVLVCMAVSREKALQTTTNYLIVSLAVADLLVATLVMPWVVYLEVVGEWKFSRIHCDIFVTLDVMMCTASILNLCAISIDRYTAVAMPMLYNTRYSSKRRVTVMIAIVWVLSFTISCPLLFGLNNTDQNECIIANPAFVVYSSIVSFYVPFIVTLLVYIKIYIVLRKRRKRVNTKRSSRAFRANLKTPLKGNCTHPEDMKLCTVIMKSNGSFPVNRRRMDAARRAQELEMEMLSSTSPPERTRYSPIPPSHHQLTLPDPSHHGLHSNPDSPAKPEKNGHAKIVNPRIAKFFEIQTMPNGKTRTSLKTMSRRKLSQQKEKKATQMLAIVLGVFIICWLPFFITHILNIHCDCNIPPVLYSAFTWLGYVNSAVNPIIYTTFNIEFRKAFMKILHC

rat D3 receptor [5] = target: T1, rat D3 receptor; details: ratio of Ki values; cited from earlier work

Emax (human D3 receptor) [%] | EC50 (human D3 receptor) [nM] | D2/D3 (human D3 receptor) | Ki (rat D3 receptor [4]) [nM] | D2L/D3 (rat D3 receptor [4]) | Ki (rat D2L receptor) [nM] | EC50 (human D2 receptor) [nM] | hCHO−D2 Emax (human D2 receptor) [%] | Structure (SMILES) | reversal of reserpine-induced hypolocomotion (locomotor activity) (reserpinized rats) | duration of locomotor activation (reserpinized rats) | Emax (human D2 receptor) [%] | other results
 |  |  |  |  |  |  |  | NCCc1cc(O)c(O)cc1O [6-OHDA, 6-hydroxydopamine, reference compound] |  |  |  | viability at 24 h, 75 μM [1]: ~50%
~100 | 0.84 ± 0.05 | 46.9 | 0.145 ± 0.035 | 1186 | 172 ± 16 | 39.4 ± 6.3 | 86.8 ± 3.8 | C#CCN(CCN1CCN(c2ccc3cc[nH]c3c2Cl)CC1)[C@H]1CCc2nc(N)sc2C1 [(−)-36, (S)-N^6-(2-(4-(7-Chloro-1H-indol-6-yl)piperazin-1-yl)ethyl)-N^6-(prop-2-yn-1-yl)-4,5,6,7-tetrahydrobenzo[d]thiazole-2,6-diamine] |  |  | ~100 | hCHO−D3 Emax (human D3 receptor; percent of Emax observed with 100 μM DA): 93.4 ± 3.6%
94 ± 3.5 | 10.9 ± 2.4 | 1.98 | 14.4 ± 1 | 5.99 | 86.5 ± 15 | 21.6 ± 9.6 | 26.7 ± 6.4 | C#CCN(CCN1CCN(c2ccc3[nH]ccc3c2Cl)CC1)[C@H]1CCc2nc(N)sc2C1 [(−)-34, (S)-N^6-(2-(4-(4-Chloro-1H-indol-5-yl)piperazin-1-yl)ethyl)-N^6-(prop-2-yn-1-yl)-4,5,6,7-tetrahydrobenzo[d]thiazole-2,6-diamine] | able to elevate locomotor activity in the above PD animal model significantly; also recorded: locomotor activity was enhanced compared to control but was less than that observed with (−)-21a |  |  | 
 |  |  |  |  |  |  |  | CCCN(CCC)CCc1cccc2c1CC(=O)N2 [ropinirole, reference compound] | quick onset of locomotor activation compared to control | much shorter duration of action compared with (−)-21a |  | 
 |  |  |  |  |  |  |  | CCCN(CCN1CCN(C(=O)c2c[nH]c3ccccc23)CC1)C1CCc2nc(N)sc2C1 [D-443, (4-(2-((2-amino-4,5,6,7-tetrahydrobenzo[d]-thiazol-6-yl)(propyl)amino)ethyl)-piperazin-1-yl)(1H-indol-3-yl)methanone] |  |  |  | D2L/D3 (rat D3 receptor [5]): 360

Structure (SMILES) | Emax (human D3 receptor) [%] | EC50 (human D3 receptor) [nM] | D2/D3 (human D3 receptor) | Ki (rat D3 receptor [4]) [nM] | D2L/D3 (rat D3 receptor [4]) | Ki (rat D2L receptor) [nM] | EC50 (human D2 receptor) [nM] | hCHO−D2 Emax (human D2 receptor) [%] | reversal of reserpine-induced hypolocomotion (locomotor activity) (reserpinized rats) | duration of locomotor activation (reserpinized rats) | Emax (human D2 receptor) [%] | other results
CCCN(CCN1CCN(c2ccc3cc[nH]c3c2Cl)CC1)[C@H]1CCc2nc(N)sc2C1.O=C(O)C(F)(F)F [(−)-21a, (S)-N^6-(2-(4-(7-Chloro-1H-indol-6-yl)piperazin-1-yl)ethyl)-N^6-propyl-4,5,6,7-tetrahydrobenzo[d]thiazole-2,6-diamine] | > 100 |  |  |  |  |  |  |  | highly effcacious in reversing hypolocomotion; also recorded: highly efficacious in reversing akinesia in rats | long duration of action; also recorded: significant enhancement of locomotion for the entire duration of the study of 6 h | > 100 | effect of compound alone on cell viability (PC12 cells [2]): no cell loss at all; neuroprotective effect against 6-OHDA-induced toxicity (PC12 cells [3]): neuroprotective; also recorded: dose-dependently protected the cells from the neurotoxic insult
